In US20260078103A1, “ISOQUINOLONES AS PI3K INHIBITORS” (OnKure, Inc., priority 2022, published 2026):
Where two headings read alike, the source gives them in different places.

Tests used:
Format in all cases: cell-based
[1] = system: phosphorylation of AKT (pAKT) in SKBR3 cells express WT PI3Ka; test: In vitro cell pAKT (Ser473) HTRF, SKBR3 cells; conditions: cellular pAKT
In short: (§1)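 pAKT (Ser473) was quantified by HTRF in lysates from cells exposed 6 h at 37 °C to 10-point compound series, with T47D in insulin-supplemented RPMI/10% FBS and SKBR3 in McCoy's 5a/10% FBS. Controls: 0.1% DMSO (high) and 10 uM alpelisib (low). IC50 from sigmoidal curve fitting.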

[2] = system: T47D cells expressing mutant PI3Ka (H1047R); test: In vitro cell proliferation, T47D cells (CellTiter-Glo); conditions: inhibition of proliferation, read-out: Avg T-47D EC50
In short: (§2)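 1,500 cells/well seeded onto pre-stamped 10-pt dilution plates; T47D in RPMI + 10% FBS + insulin 0.2 units/mL, SKBR3 in McCoys 5a + 10% FBS. 72 h, 37 °C, 5% CO2. CTG readout. 0% = 0.1% DMSO, 100% = 10 uM Alpelisib; sigmoidal fit gives EC50.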

[3] = system: SKBR3 cells express WT PI3Ka; test: In vitro cell proliferation, SKBR3 cells (CellTiter-Glo); conditions: inhibition of proliferation
In short: as §2

[4] = system: phosphorylation of AKT (pAKT) in T47D cells expressing mutant PI3Ka (H1047R); test: In vitro cell pAKT (Ser473) HTRF, T47D cells; conditions: cellular pAKT, T47D cells, mutant PI3Ka (H1047R), 6 hours, read-out: Avg T-47D IC50
In short: as §1

| Structure (SMILES) | IC50 ([1]; 6 hours) [nM] | EC50 ([2]; 72 hours) [nM] | EC50 ([3]; 72 hours) [nM] | IC50 [4] [nM] | IC50 ([1]; Homo sapiens, SK-BR-3, 6 h) [nM] | EC50 ([2]; Homo sapiens, T47D, 72 h) [nM] | EC50 ([3]; Homo sapiens, SK-BR-3, 72 h) [nM] | IC50 ([4]; Homo sapiens, T47D, 6 h) [nM] |
| --- | --- | --- | --- | --- | --- | --- | --- | --- |
| Cc1cc([C@@H](C)Nc2ccc(F)c(F)c2C(=O)O)c2cc(N3CCN(CC(F)(F)F)CC3)n(C)c(=O)c2c1 [Example 272] | 2000 to 15000 | 1 to 500 | 2000 to 15000 | 1 to 500 |  |  |  |  |
| Cc1cc([C@@H](C)Nc2ccccc2C(=O)O)c2cc(-c3cnn(C(C)(C)C#N)c3)n(C)c(=O)c2c1 [Example 273] |  |  |  |  | > 15000 | 500 to 2000 | > 15000 | 1 to 500 |
| Cc1cc([C@@H](C)Nc2cnsc2C(=O)O)c2cc(N3CCN(CC(F)(F)F)CC3)n(C)c(=O)c2c1 [Example 274] |  |  |  |  | > 15000 | 2000 to 15000 | > 15000 | 2000 to 15000 |
| Cc1cc([C@@H](C)Nc2ccccc2C(=O)O)c2cc(-c3cnc(C)cn3)n(C)c(=O)c2c1 [Example 275] |  |  |  |  | > 15000 | 1 to 500 | > 15000 | 1 to 500 |
| Cc1cc([C@@H](C)Nc2ccccc2C(=O)O)c2cc(-c3cnc(C(C)C)nc3)n(C)c(=O)c2c1 [Example 276] |  |  |  |  | > 15000 | 1 to 500 | > 15000 | 1 to 500 |
| COC(C)(C)c1ncc(-c2cc3c([C@@H](C)Nc4ccccc4C(=O)O)cc(C)cc3c(=O)n2C)cc1F [Example 277] | 2000 to 15000 | 1 to 500 | 2000 to 15000 | 1 to 500 |  |  |  |  |
| Cc1cc([C@@H](C)Nc2ccccc2C(=O)O)c2cc(-c3cnc(OC4CC4)c(F)c3)n(C)c(=O)c2c1 [Example 281] |  |  |  |  | > 15000 | 1 to 500 | > 15000 | 1 to 500 |
| Cc1cc([C@@H](C)Nc2ccccc2C(=O)O)c2cc(-c3cnc(COC(F)(F)F)c(F)c3)n(C)c(=O)c2c1 [Example 282] |  |  |  |  | > 15000 | 1 to 500 | 2000 to 15000 | 1 to 500 |
| Cc1cc([C@@H](C)Nc2ccccc2C(=O)O)c2cc(-c3cnc(C(C)(C)F)nc3)n(C)c(=O)c2c1 [Example 283] |  |  |  |  | > 15000 | 1 to 500 | > 15000 | 1 to 500 |
| CCOc1ncc(-c2cc3c([C@@H](C)Nc4ccccc4C(=O)O)cc(C)cc3c(=O)n2C)s1 [Example 284] |  |  |  |  | 2000 to 15000 | 1 to 500 | > 15000 | 1 to 500 |
| Cc1cc([C@@H](C)Nc2ccccc2C(=O)O)c2c(F)c(N3CCN(CC(F)(F)F)CC3)n(C)c(=O)c2c1 [Example 285] |  |  |  |  | 2000 to 15000 | 1 to 500 | 2000 to 15000 | 1 to 500 |
| Cc1cc([C@@H](C)Nc2ccccc2C(=O)O)c2cc(-c3cnc(C(F)(F)F)nc3)n(C)c(=O)c2c1 [Example 288] |  |  |  |  | > 15000 | 1 to 500 | > 15000 | 1 to 500 |
| Cc1cc([C@@H](C)Nc2ccccc2C(=O)O)c2cc(-c3cnc(CF)c(F)c3)n(C)c(=O)c2c1 [Example 289] | > 15000 | 1 to 500 | > 15000 | 1 to 500 |  |  |  |  |
| Cc1cc([C@@H](C)Nc2ccccc2C(=O)O)c2cc(-c3cnc(C(F)F)c(F)c3)n(C)c(=O)c2c1 [Example 290] |  |  |  |  | > 15000 | 1 to 500 | > 15000 | 1 to 500 |
| Cc1cc([C@@H](C)Nc2ccccc2C(=O)O)c2cc(-c3cnc(C(C)(F)F)c(F)c3)n(C)c(=O)c2c1 [Example 291] |  |  |  |  | > 15000 | 1 to 500 | > 15000 | 1 to 500 |
| Cc1cc([C@@H](C)Nc2ccccc2C(=O)O)c2cc(-c3cnc(C(F)(F)F)c(F)c3)n(C)c(=O)c2c1 [Example 295] |  |  |  |  | > 15000 | 1 to 500 | > 15000 | 1 to 500 |

| Structure (SMILES) | IC50 ([1]; 6 hours) [nM] | EC50 ([2]; 72 hours) [nM] | EC50 ([3]; 72 hours) [nM] | IC50 [4] [nM] | IC50 ([1]; Homo sapiens, SK-BR-3, 6 h) [nM] | EC50 ([2]; Homo sapiens, T47D, 72 h) [nM] | EC50 ([3]; Homo sapiens, SK-BR-3, 72 h) [nM] | IC50 ([4]; Homo sapiens, T47D, 6 h) [nM] |
| --- | --- | --- | --- | --- | --- | --- | --- | --- |
| Cc1cc([C@@H](C)Nc2ccccc2C(=O)O)c2cc(C3CCN(CC(F)(F)F)CC3)n(C)c(=O)c2c1 [Example 296] |  |  |  |  | > 15000 | 1 to 500 | > 15000 | 1 to 500 |
| Cc1cc([C@@H](C)Nc2cccc(C)c2C(=O)O)c2cc(N3CCN(CC(F)(F)F)CC3)n(C)c(=O)c2c1 [Example 297] |  |  |  |  | > 15000 | 2000 to 15000 | > 15000 | 2000 to 15000 |
| C#Cc1ccc(N[C@H](C)c2cc(C)cc3c(=O)n(C)c(N4CCN(CC(F)(F)F)CC4)cc23)c(C(=O)O)n1 [Example 299] |  |  |  |  | 2000 to 15000 | 1 to 500 | 2000 to 15000 | 1 to 500 |
| COc1cccc(N[C@H](C)c2cc(C)cc3c(=O)n(C)c(N4CCN(CC(F)(F)F)CC4)cc23)c1C(=O)O [Example 300] |  |  |  |  | > 15000 | 500 to 2000 | > 15000 | 500 to 2000 |
| Cc1cc([C@@H](C)Nc2ccccc2C(=O)O)c2cc(C3C[C@H]3C3CC3)n(C)c(=O)c2c1 (some centres unmarked) [Example 303] |  |  |  |  | > 15000 | 1 to 500 | > 15000 | 1 to 500 |
| COC[C@@H]1CC1c1cc2c([C@@H](C)Nc3ccccc3C(=O)O)cc(C)cc2c(=O)n1C (some centres unmarked) [Example 304] |  |  |  |  | > 15000 | 1 to 500 | > 15000 | 1 to 500 |
| Cc1cc([C@@H](C)Nc2ccccc2C(=O)O)c2cc(C3C[C@H]3C)n(C)c(=O)c2c1 (some centres unmarked) [Example 305] |  |  |  |  | > 15000 | 1 to 500 | > 15000 | 1 to 500 |
| Cc1cc([C@@H](C)Nc2ccccc2C(=O)O)c2cc(C3C[C@H]3C(C)C)n(C)c(=O)c2c1 (some centres unmarked) [Example 306] |  |  |  |  | > 15000 | 1 to 500 | > 15000 | 1 to 500 |
| Cc1cc([C@@H](C)Nc2ccccc2C(=O)O)c2cc(-c3cnc(C4CC4)nc3)n(C)c(=O)c2c1 [Example 307] |  |  |  |  | > 15000 | 1 to 500 | > 15000 | 1 to 500 |
| C[C@@H](Nc1ccccc1C(=O)O)c1cc(F)cc2c(=O)n(C)c(N3CCN(CC(F)(F)F)CC3)cc12 [Example 316] |  |  |  |  | > 15000 | 1 to 500 | > 15000 | 1 to 500 |
| Cc1cc([C@@H](C)Nc2ccccc2C(=O)O)c2cc(-c3cnc(C(C)(F)F)nc3)n(C)c(=O)c2c1 [Example 317] |  |  |  |  | > 15000 | 1 to 500 | > 15000 | 1 to 500 |
| Cc1cc([C@@H](C)Nc2cccc(F)c2C(=O)O)c2cc(-c3cnc(C(C)C)nc3)n(C)c(=O)c2c1 [Example 319] |  |  |  |  | > 15000 | 1 to 500 | > 15000 | 1 to 500 |
| Cc1cc([C@@H](C)Nc2cccc(F)c2C(=O)O)c2cc(C3CC3)n(C)c(=O)c2c1 [Example 320] |  |  |  |  | > 15000 | 1 to 500 | > 15000 | 1 to 500 |
| Cc1cc([C@@H](C)Nc2ccccc2C(=O)O)c2cc(C34CC(c5ccc(F)cc5)(C3)C4)n(C)c(=O)c2c1 [Example 321] | 2000 to 15000 | 1 to 500 | > 15000 | 1 to 500 |  |  |  |  |
| Cc1ncc(F)cc1-c1ncc(-c2cc3c([C@@H](C)Nc4ccccc4C(=O)O)cc(F)cc3c(=O)n2C)cc1F [Example 323] |  |  |  |  | 2000 to 15000 | 1 to 500 | 2000 to 15000 | 1 to 500 |
| C[C@@H](Nc1ccccc1C(=O)O)c1cc(F)cc2c(=O)n(C)c(-c3cnc(-c4ccc(F)cc4)nc3)cc12 [Example 324] | > 15000 | 1 to 500 | 2000 to 15000 | 1 to 500 |  |  |  |  |
